Source: US20170145000A1, “CANAGLIFLOZIN MONOHYDRATE AND ITS CRYSTALLINE FORMS, PREPARATION METHODS AND USES THEREOF” (Hangzhou Pushai Pharmaceutical Technology Co., Ltd., priority 2014, published 2017)

Assays:
Assay type in all cases: physicochemical
[1] = repetition of prior art forms and test of their properties (stability in water, phase stability); settings: prior art processes repeated by the inventors; competitive stability test in water
Text: The above properties may lead to problems in their pharmaceutical formulations, including variations in active substance content, poor reproducibility, impurities increasing during storage, efficacy decreasing, and so on. Moreover, the known canagliflozin is amorphous.

[2] = competitive stability test in water at room temperature with Monohydrate Form HI (XRPD); settings: equal 250 mg samples of Form HI, known canagliflozin, Form A and Form hH1 mixed with 5 mL water, stirred 7 days
Description: The competitive stability test of canagliflozin Monohydrate Form HI of the present invention, the known canagliflozin, canagliflozin hemihydrate Form hH1 and canagliflozin Form A was performed in water at room temperature.
Conditions of the competitive stability test were as follows: take equal quantity (250 mg) samples of canagliflozin Monohydrate Form HI of the present invention, canagliflozin prepared in the preparation example 1, canagliflozin Form A prepared in the preparation example 2 and canagliflozin hemihydrate Form hH1 prepared in the preparation example 3 respectively, mix the samples with 5 mL of water to form a suspension. The suspension was stirred for 7 days at room temperature and then XRPD characterization analysis was performed.

[3] = competitive stability test in water at room temperature with Monohydrate Form HII (XRPD); settings: equal 250 mg samples of Form HII, known canagliflozin, Form A and Form hH1 mixed with 3 mL water, stirred 7 days
Description: The competitive stability test among canagliflozin Monohydrate Form HII of the present invention, the known Canagliflozin, canagliflozin hemihydrate Form hH1 and canagliflozin Form A was performed in water at room temperature.
Conditions of the competitive stability test were as follows: take equal quantity (250 mg) samples of canagliflozin Monohydrate Form HII of the present invention, canagliflozin prepared in the preparation example 1 in the present invention, canagliflozin Form A prepared in the preparation example 2 in the present invention and canagliflozin hemihydrate Form hH1 prepared in the preparation 3 in the present invention, respectively, and mix the samples with 3 mL of water to form a suspension. The suspension was stirred for 7 days at room temperature and then XRPD characterization analysis was performed.

[4] = storage in desiccator at room temperature and controlled relative humidity; settings: room temperature

SMILES | stability in water / phase stability of repeated prior art forms [1] | crystalline form after storage ([4]; desiccator, 10% to 90% RH, 4 months) | crystalline form after storage ([4]; desiccators, relative humidities from 57% to 75%, continued storage for 4 months) | crystalline form after competitive stability test in water [2] | crystalline form after competitive stability test in water [3] | crystalline form after storage ([4]; desiccators, relative humidities from 57% to 75%, 1 day)
Cc1ccc([C@@H]2O[C@H](CO)[C@@H](O)[C@H](O)[C@H]2O)cc1Cc1ccc(-c2ccc(F)cc2)s1 [Cangaliflozin Form B] | poor phase stability | – | – | – | – | –
Cc1ccc([C@@H]2O[C@H](CO)[C@@H](O)[C@H](O)[C@H]2O)cc1Cc1ccc(-c2ccc(F)cc2)s1 [canagliflozin Form A] | not stable in water | – | – | transformed to canagliflozin Monohydrate Form HI | transformed to canagliflozin Monohydrate Form HII | –
Cc1ccc([C@@H]2O[C@H](CO)[C@@H](O)[C@H](O)[C@H]2O)cc1Cc1ccc(-c2ccc(F)cc2)s1 [canagliflozin Monohydrate Form HI, canagliflozin monohydrate Form HI] | – | remained unchanged | – | maintained its original crystalline form | – | –
Cc1ccc([C@@H]2O[C@H](CO)[C@@H](O)[C@H](O)[C@H]2O)cc1Cc1ccc(-c2ccc(F)cc2)s1 [canagliflozin Monohydrate Form HII] | – | – | remained unchanged | – | maintained its original crystalline form | –

Now from value to compound, other results behind:

stability in water / phase stability of repeated prior art forms [1] | crystalline form after storage ([4]; desiccator, 10% to 90% RH, 4 months) | crystalline form after storage ([4]; desiccators, relative humidities from 57% to 75%, continued storage for 4 months) | SMILES | crystalline form after competitive stability test in water [2] | crystalline form after competitive stability test in water [3] | crystalline form after storage ([4]; desiccators, relative humidities from 57% to 75%, 1 day)
poor phase stability | – | – | Cc1ccc([C@@H]2O[C@H](CO)[C@@H](O)[C@H](O)[C@H]2O)cc1Cc1ccc(-c2ccc(F)cc2)s1.O [canagliflozin hemihydrate Form hH1] | transformed to canagliflozin Monohydrate Form HI | transformed to canagliflozin Monohydrate Form HII | –
not stable in water | – | – | Cc1ccc([C@@H]2O[C@H](CO)[C@@H](O)[C@H](O)[C@H]2O)cc1Cc1ccc(-c2ccc(F)cc2)s1 [known canagliflozin, (1S)-1,5-anhydro-1-[3-[[5-(4-fluorophenyl)-2-thienyl]methyl]-4-methylphenyl]-D-glucitol] | transformed to canagliflozin Monohydrate Form HI | transformed to canagliflozin Monohydrate Form HII | transformed to canagliflozin Monohydrate Form HII
